Experimental data taken from patent US6500858B2, “Taxoid anti-tumor agents and pharmaceutical compositions thereof” (The Research Foundation of the state University of New York, priority 1994, dated 2002).

Assay: cytotoxicity of C-3′ modified docetaxel analog (cell line not clearly stated)
Format: cell-based
Conditions: compared with isobutenyl group of RAH-1

CC(=O)OC12COC1CC(O)C1(C)C(=O)C(O)C3=C(C)C(OC(=O)C(O)C(C=Cc4ccccc4)NC(=O)OC(C)(C)C)CC(O)(C(OC(=O)c4ccccc4)C21)C3(C)C (stereo not shown) [3′-dephenyl-3′-(2-phenylethenyl)docetaxel]
decrease in cytotoxicity: > 20 times
